Assay results as given in article PMC3813382 (The Journal of General Physiology, 2013).

Target: T1, Slo2.1 (Homo sapiens, UniProt Q6UVM3)
T1 sequence (Q6UVM3 1-1135): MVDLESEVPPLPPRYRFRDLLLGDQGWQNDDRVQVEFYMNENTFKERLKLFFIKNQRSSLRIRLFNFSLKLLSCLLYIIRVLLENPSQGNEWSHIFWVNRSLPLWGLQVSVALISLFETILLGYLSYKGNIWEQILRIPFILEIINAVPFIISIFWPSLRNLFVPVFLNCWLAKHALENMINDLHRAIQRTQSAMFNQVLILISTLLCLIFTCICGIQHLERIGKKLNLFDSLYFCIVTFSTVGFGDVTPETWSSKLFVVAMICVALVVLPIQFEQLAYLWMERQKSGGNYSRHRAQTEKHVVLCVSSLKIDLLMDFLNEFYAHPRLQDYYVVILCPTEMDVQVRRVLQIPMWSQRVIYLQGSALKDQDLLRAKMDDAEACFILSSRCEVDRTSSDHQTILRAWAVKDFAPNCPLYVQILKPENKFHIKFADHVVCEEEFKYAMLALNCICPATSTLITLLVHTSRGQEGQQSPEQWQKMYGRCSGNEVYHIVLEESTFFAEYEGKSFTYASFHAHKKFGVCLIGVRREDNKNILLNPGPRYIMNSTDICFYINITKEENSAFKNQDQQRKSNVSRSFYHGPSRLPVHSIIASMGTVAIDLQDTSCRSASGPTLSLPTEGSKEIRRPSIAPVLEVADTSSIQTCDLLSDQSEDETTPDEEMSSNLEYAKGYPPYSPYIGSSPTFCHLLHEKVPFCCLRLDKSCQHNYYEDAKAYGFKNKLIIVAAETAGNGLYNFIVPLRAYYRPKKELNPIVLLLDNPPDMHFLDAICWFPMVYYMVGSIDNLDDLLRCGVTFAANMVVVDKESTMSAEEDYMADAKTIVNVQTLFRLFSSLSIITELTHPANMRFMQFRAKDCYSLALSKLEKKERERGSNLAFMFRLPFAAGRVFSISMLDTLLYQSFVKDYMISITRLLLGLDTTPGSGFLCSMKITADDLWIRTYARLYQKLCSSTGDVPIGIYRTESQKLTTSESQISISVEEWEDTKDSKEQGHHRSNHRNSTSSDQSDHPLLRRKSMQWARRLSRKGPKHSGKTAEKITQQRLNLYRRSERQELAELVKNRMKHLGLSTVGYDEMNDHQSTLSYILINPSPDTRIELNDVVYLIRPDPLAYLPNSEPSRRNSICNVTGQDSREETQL
Experiment: Excised inside-out macropatch recordings of ISlo2.1 from oocytes
Assay type: cell-based
Conditions: 10 µM in bath (cytosolic) solution

CCCCCCCC(=O)OC[C@H](COP(=O)(O)O[C@@H]1[C@H](O)[C@H](O)[C@@H](OP(=O)(O)O)[C@H](OP(=O)(O)O)[C@H]1O)OC(=O)CCCCCCC [PI(4,5)P2 diC8, phosphatidylinositol 4,5-bisphosphate diC8]
effect on run-down of macroscopic ISlo2.1 in excised patches: preventable
